Test results from paper PMC9911797, “Novel TLR7/8 agonists promote activation of HIV-1 latent reservoirs and human T and NK cells” (Frontiers in Microbiology, 2023).

How the values were obtained:
hTLR8 = target: T1, hTLR8 (Homo sapiens, UniProt Q9NR97); test: HEK-Blue hTLR8 SEAP reporter assay; type: cell-based; settings: HEK-Blue hTLR8 cells, SEAP in supernatant
T1 construct: host or cells: HEK-Blue hTLR8 (HEK293-derived)
T1 sequence (Q9NR97 27-1041): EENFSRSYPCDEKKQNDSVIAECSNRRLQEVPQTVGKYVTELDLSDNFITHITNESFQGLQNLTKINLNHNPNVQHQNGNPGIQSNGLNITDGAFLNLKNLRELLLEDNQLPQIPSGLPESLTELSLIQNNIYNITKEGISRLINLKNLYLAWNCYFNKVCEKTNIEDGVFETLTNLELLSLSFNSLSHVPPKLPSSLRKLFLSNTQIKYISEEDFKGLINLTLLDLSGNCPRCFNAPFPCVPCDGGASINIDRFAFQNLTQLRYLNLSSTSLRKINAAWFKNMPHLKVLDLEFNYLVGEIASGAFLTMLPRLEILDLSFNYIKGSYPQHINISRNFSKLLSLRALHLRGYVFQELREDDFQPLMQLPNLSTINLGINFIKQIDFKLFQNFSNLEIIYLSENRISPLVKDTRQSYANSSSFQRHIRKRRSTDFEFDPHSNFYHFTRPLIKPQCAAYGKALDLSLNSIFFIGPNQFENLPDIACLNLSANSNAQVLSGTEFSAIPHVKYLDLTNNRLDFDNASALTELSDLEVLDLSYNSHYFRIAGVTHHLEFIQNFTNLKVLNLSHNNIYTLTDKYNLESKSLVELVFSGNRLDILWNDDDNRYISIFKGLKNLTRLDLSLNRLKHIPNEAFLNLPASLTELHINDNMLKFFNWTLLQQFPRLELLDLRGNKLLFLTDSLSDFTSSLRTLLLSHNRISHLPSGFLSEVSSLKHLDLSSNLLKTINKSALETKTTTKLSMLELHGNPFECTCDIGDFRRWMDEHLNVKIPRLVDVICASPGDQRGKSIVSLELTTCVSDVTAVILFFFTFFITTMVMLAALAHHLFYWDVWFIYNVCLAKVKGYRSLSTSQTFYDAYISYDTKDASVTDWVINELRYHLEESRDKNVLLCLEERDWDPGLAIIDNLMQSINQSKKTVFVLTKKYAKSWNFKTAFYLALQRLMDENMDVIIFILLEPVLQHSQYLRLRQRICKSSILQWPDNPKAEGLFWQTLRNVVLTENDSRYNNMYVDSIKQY
Description: Starting with the lead compound, 76 pyrido [3,2-d] pyrimidine derivatives were synthesized and optimized through structural modification from the deep hydrophobic region to the solvent-exposed region. Seventy-six compounds were evaluated for their in vitro activity using HEK-Blue hTLR7 or hTLR8 reporter cells, stably expressing the human TLR7 or TLR8 and an NF-κB/AP1-inducible SEAP (secreted embryonic alkaline phosphatase reporter gene).
Add 20 μl various concentrations of TLR agonists (10 dilutions) and in a 96-well plate. Then HEK-Blue hTLR7 and hTLR8 cells were suspended to 4 × 10^5 cells/ml in HEK-Blue Detection (InvivoGen) medium and added 180 μl per well. The plates were incubated at 37°C in 5% CO2 for 12 ~ 16 h. Stimulation with a hTLR7or hTLR8 ligand activates NF-κB to induce the production of secreted embryonic alkaline phosphatase (SEAP) in the culture supernatant. SEAP could be measured at OD630nm on an ELISA plate reader.

[1] = system: PBMCs from HIV-1 well-suppressed patients; test: Latent HIV-1 activation in PBMCs of well-suppressed patients (HIV-1 RNA copies in supernatant, RT-qPCR); type: cell-based, human
Description: To study the potential of novel TLR7/8 in activating latent HIV-1 reservoir, TLR7/8 dual agonists D018 and C142 and TLR8-specific agonist B-130a were mixed with PBMCs from six well-suppressed patients whose viral load in the plasma was less than 50 copies/ml, and CD4 counts were more than […] for more than 6 years.
TLR7/8 agonists activated PBMCs from seven well-suppressed patients with the addition of anti-TNF-α monoclonal antibody or IgG1-control monoclonal antibody, respectively. D018, B-130a, and the positive control PMA + ION increased the levels of HIV-1 RNA copies in the supernatant and the concentration of TNF-α concomitantly.
To measure the HIV viral load, viral RNA from supernatants was extracted by MagaBio Plus Viral DNA / RNA Purification Kit (BIOER). The reverse-transcription and analysis of RNA copies were performed using the HIV-1 Real-time PCR detection kit (BIOER).

[2] = system: PBMCs from healthy donors; test: Surface activation markers on immune cells of healthy donor PBMCs (flow cytometry); type: cell-based, human; settings: 1 μM, 24 h
Description: TLR family is essential in connecting innate immunity with acquired immunity in fighting against infection. It was then studied whether the identified TLR7/8 agonists could activate cell populations within PBMC, thereby potentiating their effector functions. […] The representative diagram of the gating strategy for each immune cell is shown in Supplementary Figure S5. All tested TLR7/8 agonists activated CD69 and NKG2D expression on CD56^bright and CD56^dim NK cells (Figures 6A–D), as well as CD69 and CD25 expression on CD4+ and CD8+ T cells (Figures 6E–H).
Then cells were collected and washed in FACS buffer (PBS + 2%FBS). Cells were incubated by fluorescence antibodies at 4°C for 30 min. For T cells, CD3-PE-Cy7 (Biolegend), CD4-PE (BD), CD8-FITC (Biolegend), CD25-BV421 (Biolegend), CD69-BV510 (Biolegend). For NK cells, CD16-PE (Biolegend), CD56-APC (Biolegend), CD69-BV510 (Biolegend), NKG2D-BV421 (Biolegend). For monocytes, CD14-PE-Cy7 (Invitrogen), CD40-APC-Cy7 (Biolegend) HLR-DR-BV510 (Biolegend). For dendritic cells, anti-human lineage cocktail-APC (Biolegend), CD11c-PE-Cy7 (Biolegend), CD80-BV510 (Biolegend), CD86-AF488 (Biolegend).

[3] = system: J-LAT CD4 T cell line (latent HIV-1); test: J-LAT activation by supernatant of agonist-stimulated healthy donor PBMCs (GFP+ cells, FACS); settings: 48 h, highest concentration 16 μM

## CCCCNc1nc(N)nc2ccc(Cc3ccc(CN(C)C)cc3)nc12 [D018]
hTLR8
  EC50: 6.46 nM
[1]; PBMCs from seven well-suppressed patients, IgG1-control antibody vs anti-TNF-α
  HIV-1 RNA copies in the supernatant and TNF-α concentration: increased
[1]; patient PBMCs (n = 6), 96 h at 37°C
  HIV-1 RNA copies in the supernatant: most potent
[2]
  CD69/NKG2D on NK cells and CD69/CD25 on CD4+ and CD8+ T cells: most potent
[3]
  GFP-positive J-LAT cells, PBMC supernatant: most potent
